Here are results for seven compounds from publication PMC10682194, “Structural insights into ligand recognition and selectivity of the human hydroxycarboxylic acid receptor HCAR2” (Cell Discovery, 2023).

Molecules are shown by their SMILES. Where two headings read alike, the source gives them in different places.

For data set [1], the system named is HCAR2. Particulars: cited from earlier work.
In another data set the target is HCAR3 (Homo sapiens, UniProt P49019). Particulars: HCAR2 natural ligands on HCAR3; cited from earlier work.
For data set [2] the following is noted: rat, compared to niacin; cited from earlier work.
The conditions of data set [3]: dog, compared to niacin; cited from earlier work.
In another data set the target is T1, wild-type HCAR2 (Homo sapiens, UniProt Q8TDS4).
T1 construct: expressed in transfected cells; host or cells: HEK293 cells (ATCC CRL-1573)
As to the kind of experiment: SPR binding affinity, wild-type receptor. Here is the method:
Varying concentrations of agonist diluted in running buffer were injected as analytes for 100 s, as the period of association. Subsequently, the running buffer was alternatively perfused over the chip to allow the bound agonist to undergo a 50 s period of disassociation. Sensorgrams were recorded in real-time and analyzed in the Biacore X100 system for the calculation of binding affinity (KD).
(In SPR one partner is held on a chip, and binding of the other changes the refractive index at the surface.)

Data set [4] has as its system HCAR2 mutants at positions 86, 91, 103, 107, 176, and 178. As to the kind of experiment: Gi/o-cAMP assay, HCAR2 residues mutated to the allelic residues in HCAR3. Particulars: six HCAR2 residues mutated to HCAR3 residues. Format: cell-based, human. How it is done: (§1) The Gi/o-cAMP assay was performed as follows. […] Data were analyzed with GraphPad Prism 9.0. The experiments were performed in triplicate.

Data set [5] concerns HCAR3 mutants at positions 86, 91, 103, 107, 176, and 178. Nature of the data set: Gi/o-cAMP assay, reverse mutations in HCAR3. Particulars: reverse mutations of the six residues in HCAR3. It is filed as cell-based, human. Here is the method:
as §1
A general note: Cyclic AMP is a second messenger, typically raised through Gs and lowered through Gi signalling.

The subject of data set [6] is HCAR2. Also noted: method as in PMID 19349687. Particulars: HCAR2 agonist; cited from earlier work.

Sequence of HCAR3 (P49019 whole entry): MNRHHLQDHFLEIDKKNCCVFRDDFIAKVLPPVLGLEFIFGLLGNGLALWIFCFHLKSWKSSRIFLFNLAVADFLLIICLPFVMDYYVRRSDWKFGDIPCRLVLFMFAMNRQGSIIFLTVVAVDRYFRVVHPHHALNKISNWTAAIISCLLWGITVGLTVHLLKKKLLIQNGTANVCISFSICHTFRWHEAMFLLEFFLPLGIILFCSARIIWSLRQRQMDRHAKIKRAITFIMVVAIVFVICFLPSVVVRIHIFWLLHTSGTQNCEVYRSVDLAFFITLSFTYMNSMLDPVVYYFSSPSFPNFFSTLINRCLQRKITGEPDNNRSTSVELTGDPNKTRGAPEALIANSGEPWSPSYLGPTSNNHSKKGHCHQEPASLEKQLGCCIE
T1 sequence (Q8TDS4 whole entry): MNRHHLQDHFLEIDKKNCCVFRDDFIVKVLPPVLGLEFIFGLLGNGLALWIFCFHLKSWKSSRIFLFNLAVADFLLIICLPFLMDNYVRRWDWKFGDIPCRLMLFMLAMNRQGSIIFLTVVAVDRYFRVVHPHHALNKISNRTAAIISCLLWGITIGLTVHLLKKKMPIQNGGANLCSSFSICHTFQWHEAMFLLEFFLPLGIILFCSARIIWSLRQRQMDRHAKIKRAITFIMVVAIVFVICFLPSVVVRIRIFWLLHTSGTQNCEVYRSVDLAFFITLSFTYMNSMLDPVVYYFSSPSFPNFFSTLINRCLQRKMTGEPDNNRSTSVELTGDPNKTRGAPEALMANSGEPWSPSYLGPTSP

With `CC(O)CC(=O)O` (stereo not drawn) [β-OHB, β-hydroxybutyrate], the “potency for HCAR2 relative to butyrate” value with HCAR2 [1] (endogenous ligands) is on record as “higher potency”. Also, on HCAR3, the “activity toward HCAR3” value is “no activity”.

Consider `CC(C)(Cc1nc(-c2ccc(O)cn2)no1)C(=O)NC1=C(C(=O)O)CCCC1` [MK-6892], for which the flushing effect result in data set [2] and in data set [3] was “significantly relieved” each time.

As usually defined, the Kd is the free concentration of one partner at which half of the binding sites on the other are occupied at equilibrium, for simple one-to-one binding. A high value points to lower affinity. One may read the EC50 as the concentration at which the effect is half-maximal. Regarding `Cc1cnc(C(=O)O)c[n+]1[O-]` [acipimox], the affinity on wild-type HCAR2, expressed as Kd, was 429 nM. In data set [4], the “effect of mutations on agonist activity in HCAR2” value is “markedly reduced”. In addition, in data set [5], the “agonistic activity compared to wild-type HCAR3” value is given as “increased”. The EC50 in the data set on HCAR2 [1] (agonist of HCAR2) is 2.6 to 6 µM.

With `NC(=O)c1cccnc1` [nicotinamide], the “activity toward HCAR2” value with HCAR2 [1] (carboxyl group of niacin replaced with an amide group) was “no longer active”.

As for `CCCC(=O)O` [butyrate], the “activity toward HCAR3” value at HCAR3 is on record as “no activity”.

With `CCCCCC(O)CC(=O)O` (stereo not drawn) [3-hydroxyoctanoic acid], in the data set with HCAR2 [1] (natural ligand of HCAR3 tested on HCAR2), the “activation of HCAR2” value was “not activated”.

`C1Cc2[nH]nc(-c3nn[nH]n3)c2C1` [MK-0354]: the β-arrestin activation result in the data set with HCAR2 [6] is given as “weak”.
